Literature values, collected in paper PMC11643554, “Synthesis, Cytotoxicity and Antiproliferative Effect of New Pyrrole Hydrazones” (Molecules, 2024).

Test system: melanoma cells
Design: method as in PMID 25524552, PMID 29364157
Details: standard cytostatics used in chemotherapy, compared with 1C in SH-4 melanoma cells; cited from earlier work

Row | Structure (SMILES) | IC50
1 | CN(C)C(=O)c1cc2cnc(Nc3ccc(N4CCNCC4)cn3)nc2n1C1CCCC1 [Ribociclib] | 35 µM
2 | N.N.O=C([O-])C1(C(=O)[O-])CCC1.[Pt+2] [Carboplatin] | 18.2 µM
3 | Cn1nnc2c(C(N)=O)ncn2c1=O [Temozolomide] | 50 µM
